In the supplement of paper PMC10307832:

How the values were obtained:
Assay in all cases: relative viability (nuclei count vs DMSO), 5 days (fraction); higher = more cells survive
Sulindac + Bortezomib = compound: CC1=C(CC(=O)O)c2cc(F)ccc2/C1=C\c1ccc([S+](C)[O-])cc1 [Sulindac] + CC(C)C[C@H](NC(=O)[C@H](Cc1ccccc1)NC(=O)c1cnccn1)B(O)O [Bortezomib] (partner 0.002 µM)
Outline: (§1)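 Relative viability was taken as the ratio of nuclei in treated wells to nuclei in vehicle wells. Lung cancer cell lines in 1536-well plates received compounds by pin tool one day after seeding, either one drug alone or a fixed anchor-drug dose plus five library-drug doses (not always all listed) in √10 steps. Nuclei were counted on 4× images after 5 days of treatment, and values are medians of duplicate plates.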

Sulindac + Crizotinib = compound: CC1=C(CC(=O)O)c2cc(F)ccc2/C1=C\c1ccc([S+](C)[O-])cc1 [Sulindac] + C[C@@H](Oc1cc(-c2cnn(C3CCNCC3)c2)cnc1N)c1c(Cl)ccc(F)c1Cl [Crizotinib] (partner 1 µM)
Outline: as §1

[1] = compound: CN[C@@H]1C[C@H]2O[C@@](C)([C@@H]1OC)n1c3ccccc3c3c4c(c5c6ccccc6n2c5c31)C(=O)NC4 [Staurosporine] + Nc1ncn([C@H]2C[C@H](O)[C@@H](CO)O2)c(=O)n1 [Decitabine] (partner 2 µM)
Outline: as §1

[2] = compound: O=c1[nH]cc(F)c(=O)[nH]1 [5-Fluorouracil] + CCNC(=O)c1noc(-c2cc(C(C)C)c(O)cc2O)c1-c1ccc(CN2CCOCC2)cc1 [Luminespib] (partner 0.01 µM)
Outline: as §1

Cell Line | relative viability (Sulindac + Bortezomib; first compound 0.08 µM) | relative viability (Sulindac + Bortezomib; first compound 0.253 µM) | relative viability (Sulindac + Bortezomib; first compound 0.8 µM) | relative viability (Sulindac + Bortezomib; first compound 2.53 µM) | relative viability (Sulindac + Bortezomib; first compound 8 µM) | relative viability (Sulindac + Crizotinib; first compound 0.08 µM) | relative viability (Sulindac + Crizotinib; first compound 0.253 µM) | relative viability (Sulindac + Crizotinib; first compound 0.8 µM) | relative viability (Sulindac + Crizotinib; first compound 2.53 µM) | relative viability (Sulindac + Crizotinib; first compound 8 µM) | relative viability ([1]; first compound 0.005 µM) | relative viability ([1]; first compound 0.01581 µM) | relative viability ([1]; first compound 0.05 µM) | relative viability ([1]; first compound 0.1581 µM) | relative viability ([1]; first compound 0.5 µM) | relative viability ([2]; first compound 0.02 µM) | relative viability ([2]; first compound 0.2 µM) | relative viability ([2]; first compound 0.6325 µM) | relative viability ([2]; first compound 2 µM)
NCI-H1915 | 1.18 | 1.08 | 0.861 | 0.956 | 1.05 | 1.25 | 1.02 | 0.676 | 0.903 | 0.947 | 0.268 | 0.227 | 0.186 | 0.126 | 0.0975 | 0.658 | 0.855 | 0.699 | 0.597
LXF-289 | 1.06 | 1.04 | 0.991 | 1.04 | 0.974 | 0.844 | 0.868 | 0.776 | 0.85 | 0.855 | 0.445 | 0.266 | 0.31 | 0.18 | 0.206 | 0.701 | 0.435 | 0.251 | 0.238
HCC-827 | 1.01 | 1.13 | 0.93 | 1.06 | 1.11 | 0.927 | 0.98 | 0.942 | 0.914 | 0.956 | 0.34 | 0.274 | 0.288 | 0.211 | 0.189 | 0.399 | 0.691 | 0.465 | 0.239
EMC-BAC-2 | 1.14 | 1.1 | 0.824 | 1.06 | 1.08 | 0.788 | 0.778 | 0.585 | 0.779 | 0.91 | 0.554 | 0.269 | 0.222 | 0.214 | 0.208 | 1.12 | 1.23 | 1.22 | 1.16
NCI-H647 | 1.02 | 1.13 | 0.667 | 0.936 | 1.05 | 1.4 | 1.21 | 0.879 | 1.26 | 1.35 | 0.379 | 0.247 | 0.266 | 0.0707 | 0.062 | 0.166 | 0.157 | 0.243 | 0.136
NCI-H1792 | 1.24 | 0.995 |  | 0.987 | 1.24 | 1 | 1 |  | 0.944 | 1.16 | 0.432 | 0.298 | 0.224 | 0.133 | 0.065 | 0.616 | 0.439 | 0.262 | 0.182
NCI-H2009 | 1.1 | 1.16 | 0.877 | 1.01 | 1.04 | 1.15 | 1.05 | 1.05 | 0.985 | 1.24 | 0.331 | 0.272 | 0.196 | 0.172 | 0.0871 | 1.18 | 1.12 | 1.12 | 0.645
NCI-H2347 | 0.884 | 0.97 | 0.704 | 0.86 | 1.11 | 0.77 | 0.688 | 0.684 | 0.812 | 0.819 | 0.527 | 0.406 | 0.384 | 0.309 | 0.323 | 0.41 | 0.72 | 0.41 | 0.411
NCI-H522 |  |  |  |  |  |  |  |  |  |  | 0.502 | 0.678 | 0.643 | 0.617 | 0.564 | 1.14 | 1.19 | 1.17 | 0.961
SK-MES-1 |  |  |  |  |  | 1.14 | 1.09 | 0.822 | 1.09 | 1.14 | 0.32 | 0.239 | 0.204 | 0.136 | 0.121 | 1.07 | 0.606 | 0.349 | 0.255
NCI-H1299 | 1.09 | 1.04 | 1.04 | 1.03 | 1.05 | 1.06 | 0.975 | 0.866 | 0.971 | 1.01 |  |  |  |  |  |  |  |  | 
NCI-H1563 | 0.848 | 0.876 | 0.793 | 0.779 | 0.925 | 0.84 | 0.92 | 0.806 | 0.785 | 0.888 |  |  |  |  |  | 0.49 | 0.478 | 0.499 | 0.488
NCI-H1944 |  |  |  |  |  | 0.972 | 1.29 | 0.826 | 0.952 | 1.24 | 0.41 | 0.354 | 0.401 | 0.326 | 0.278 | 0.73 | 0.625 | 0.3 | 0.185
LK-2 |  |  |  |  |  | 0.185 | 0.243 |  |  | 0.216 | 0.327 | 0.173 | 0.369 | 0.0995 | 0.0618 |  |  |  | 
Calu-6 | 1.11 | 1.14 | 0.915 | 1.02 | 1.13 | 0.951 | 0.883 | 0.637 | 0.853 | 0.969 |  |  |  |  |  |  |  |  | 
NCI-H1395 |  |  |  |  |  |  |  |  |  |  | 0.76 | 0.596 | 0.454 | 0.314 | 0.27 | 0.638 | 0.675 | 0.743 | 0.658
EBC-1 | 0.585 | 0.557 | 0.56 | 0.474 | 0.663 | 0.188 | 0.196 |  | 0.178 | 0.201 |  |  |  |  |  |  |  |  | 
NCI-H1648 |  |  |  |  |  |  |  |  |  |  | 0.43 | 0.223 | 0.28 | 0.313 | 0.287 |  |  |  | 
NCI-H1703 | 0.303 | 0.394 | 0.225 | 0.457 | 0.284 | 0.561 | 0.649 | 0.824 | 0.678 | 0.805 |  |  |  |  |  |  |  |  | 
SW 900 |  |  |  |  |  |  |  |  |  |  | 0.531 | 0.39 | 0.394 | 0.262 | 0.25 | 0.153 | 0.161 | 0.213 | 0.196
NCI-H2342 |  |  |  |  |  |  |  |  |  |  | 0.772 | 0.687 | 0.513 | 0.553 | 0.372 | 0.807 | 0.731 | 0.616 | 0.467
A549 |  |  |  |  |  | 1.13 | 0.783 | 0.651 | 0.892 | 0.924 | 0.348 | 0.239 | 0.108 | 0.0369 | 0.0407 |  |  |  | 
HCC-78 | 0.432 | 0.534 | 0.379 | 0.607 | 0.532 | 0.305 | 0.326 | 0.327 | 0.296 | 0.401 | 0.76 | 0.617 | 0.627 | 0.444 | 0.49 |  |  |  | 
